Target: T1, hCRTH2 (Homo sapiens, UniProt Q9Y5Y4)
T1 construct: expressed in transfected cells; host or cells: HEK (human embryonic kidney) cells expressing hCRTH2; membrane preparation
T1 sequence (Q9Y5Y4 1-395): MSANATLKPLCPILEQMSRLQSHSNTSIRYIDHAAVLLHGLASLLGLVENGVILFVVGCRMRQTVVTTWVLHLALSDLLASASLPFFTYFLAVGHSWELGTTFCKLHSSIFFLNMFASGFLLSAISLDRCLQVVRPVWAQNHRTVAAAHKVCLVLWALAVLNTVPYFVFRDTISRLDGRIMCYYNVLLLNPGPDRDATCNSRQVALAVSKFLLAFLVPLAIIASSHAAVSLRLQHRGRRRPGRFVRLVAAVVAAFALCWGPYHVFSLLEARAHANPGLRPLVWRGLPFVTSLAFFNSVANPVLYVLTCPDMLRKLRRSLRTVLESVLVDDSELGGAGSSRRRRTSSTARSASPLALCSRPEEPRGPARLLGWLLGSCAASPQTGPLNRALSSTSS
Assay: Radioligand binding assay ([3H]PGD2 competition, HEK-hCRTH2 membranes)
Conditions: [3H]PGD2 binding, rated A-E (Table A)
Method in brief: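 Using membranes of an HEK line stably carrying hCRTH2, ligands were tested against [3H]PGD2 (3.0 nM) in pH 7.4 Tris buffer containing 2 mM MnCl2 and 1 mM EDTA. After one hour at room temperature, filters were washed cold and counted.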

Ki, 2.1 to 20 nM:
CC(CCc1nc2cc(C(=O)N[C@@H](c3ccccc3)C(F)(F)F)ccc2nc1-c1ccc(Cl)cc1)CC(=O)O (stereo partly drawn) [17M, 3-(4-chlorophenyl)-beta-methyl-7-[[[2,2,2-trifluoro-(1S)-phenylethyl]amino]carbonyl]-2-quinoxaline pentanoic acid]
CC(CCc1nc2cc(C(=O)N[C@H](c3ccccc3)C(F)(F)F)ccc2nc1-c1ccc(Cl)cc1)CC(=O)O (stereo partly drawn) [17N, 3-(4-chlorophenyl)-beta-methyl-7-[[(2,2,2-trifluoro-1(R)-phenylethyl)amino]carbonyl]-2-quinoxalinepentanoic acid]
COc1ccc([C@H](C)NC(=O)c2ccc3nc(-c4ccc(Cl)cc4)c(CCC(C)CC(=O)O)nc3c2)cc1 (stereo partly drawn) [17P, 3-(4-chlorophenyl)-7-[[[1(S)-(4-methoxyphenyl)ethyl]amino]carbonyl]-beta-methyl-2-quinoxaline pentanoic acid]
CC(CCc1nc2cc(C(=O)NCc3cccc(Cl)c3)ccc2nc1-c1ccc(C(F)(F)F)cc1)CC(=O)O (stereo not drawn) [17Q, 7-[[[(3-chlorophenyl)methyl]amino]carbonyl]-beta-methyl-3-[4-(trifluoromethyl)phenyl]-2-quinoxalinepentanoic acid]
CC(CCc1nc2cc(C(=O)N[C@@H](c3ccccc3)C(F)(F)F)ccc2nc1-c1ccc(C(F)(F)F)cc1)CC(=O)O (some centres unmarked) [17S]
CC(CCc1nc2cc(C(=O)N3CC[C@H](c4ccccc4)C3)ccc2nc1-c1ccc(C(F)(F)F)cc1)CC(=O)O (stereo partly drawn) [17U, beta-methyl-7-[(3(R)-phenyl-1-pyrrolidinyl)carbonyl]-3-[4-(trifluoromethyl)phenyl]-2-quinoxalinepentanoic acid]
CC(CCc1nc2cc(C(=O)NCc3ccc(Cl)cc3)ccc2nc1-c1ccc(C(F)(F)F)cc1)CC(=O)O (stereo not drawn) [17X, 7-[[[(4-chlorophenyl)methyl]amino]carbonyl]-beta-methyl-3-[4-(trifluoromethyl)phenyl]-2-quinoxalinepentanoic acid]
CC(CCc1nc2cc(C(=O)NCc3ccc(OC(F)(F)F)cc3)ccc2nc1-c1ccc(C(F)(F)F)cc1)CC(=O)O (stereo not drawn) [17Y, beta-methyl-7-[[[[4-(trifluoromethoxy)phenyl]methyl]amino]carbonyl]-3-[4-(trifluoromethyl)phenyl]-2-quinoxalinepentanoic acid]
CC(CCc1nc2cc(C(=O)NCc3ccc(C#N)cc3)ccc2nc1-c1ccc(C(F)(F)F)cc1)CC(=O)O (stereo not drawn) [17Z, 7-[[[(4-cyanophenyl)methyl]amino]carbonyl]-beta-methyl-3-[4-(trifluoromethyl)phenyl]-2-quinoxalinepentanoic acid]
CC(CCc1nc2cc(C(=O)N3CCC[C@@H](c4ccccc4)C3)ccc2nc1-c1ccc(Cl)cc1)CC(=O)O (stereo partly drawn) [17i, 3-(4-chlorophenyl)-beta-methyl-7-[(3(S)-phenyl-1-piperidinyl)carbonyl]-2-quinoxalinepentanoic acid]
CC(CCCc1nc2cc(C(=O)NCc3cccc(Cl)c3)ccc2nc1-c1ccc(C(F)(F)F)cc1)C(=O)O (stereo not drawn) [18D, 7-[[[(3-chlorophenyl)methyl]amino]carbonyl]-alpha-nethyl-3-[4-(trifluoromethyl)phenyl]-2-quinoxalinepentanoic acid]
CC(CCCc1nc2cc(C(=O)N3CC[C@H](c4ccccc4)C3)ccc2nc1-c1ccc(C(F)(F)F)cc1)C(=O)O (stereo partly drawn) [18F, alpha-methyl-7-[(3(R)-phenyl-1-pyrrolidinyl)carbonyl]-3-[4-(trifluoromethyl)phenyl]-2-quinoxalinepentanoic acid]
CC(CCCc1nc2cc(C(=O)N[C@@H](c3ccccc3)C(F)(F)F)ccc2nc1-c1ccc(C(F)(F)F)cc1)C(=O)O (stereo partly drawn) [18H, alpha-methyl-3-[4-(trifluoromethyl)phenyl]-7-[[(2,2,2-trifluoro-1(S)-phenylethyl)amino]carbonyl]-2-quinoxalinepentanoic acid]
N#Cc1ccc(CNC(=O)c2ccc3nc(-c4ccc(Cl)cc4)c(CCc4cccc(CC(=O)O)c4)nc3c2)cc1 [19F, 3-[2-[3-(4-chlorophenyl)-7-[[[(4-cyanophenyl)methyl]amino]carbonyl]-2-quinoxalinyl]ethyl] benzeneacetic acid]
C[C@@H](NC(=O)c1ccc2nc(-c3ccc(Cl)cc3)c(CCc3cccc(CC(=O)O)c3)nc2c1)c1ccc(F)cc1 [19G, 3-[2-[3-(4-chlorophenyl)-7-[[[1(R)-(4-fluorophenyl)ethyl]amino]carbonyl]-2-quinaxalinyl]ethyl] benzeneacetic acid]
C[C@H](NC(=O)c1ccc2nc(-c3ccc(Cl)cc3)c(CCc3cccc(CC(=O)O)c3)nc2c1)c1ccc(F)cc1 [19H, 3-[2-[3-(4-chlorophenyl)-7-[[[1(S)-(4-fluorophenyl)ethyl]amino]carbonyl]-2-quinoxalinyl]ethyl] benzeneacetic acid]
O=C(O)Cc1cccc(CCc2nc3cc(C(=O)N4CC(c5ccccc5)C4)ccc3nc2-c2ccc(Cl)cc2)c1 [19K, 3-[2-[3-(4-chlorophenyl)-7-[(3-phenyl-1-azetidinyl)carbonyl]-2-quinoxalinyl]ethyl] benzeneacetic acid]
O=C(O)Cc1cccc(CCc2nc3cc(C(=O)NCc4cccc(Cl)c4)ccc3nc2-c2ccc(Cl)cc2)c1 [19i, 3-[2-[3-(4-chlorophenyl)-7-[[[(3-chlorophenyl)methyl]amino]carbonyl]-2-quinoxalinyl]ethyl] benzeneacetic acid]
C[C@@H](c1ccccc1)N(C)C(=O)c1ccc2nc(-c3ccc(F)cc3)c(CCCCC(=O)O)nc2c1 [21C, -(4-fluorophenyl)-7-[[methyl(1(S)-phenylethyl)amino]carbonyl]-2-quinoxalinepentanoic acid]
O=C(O)CCCCc1nc2cc(C(=O)N3CC[C@@H](c4ccccc4)C3)c(F)cc2nc1-c1ccc(F)cc1 [24H, 6-fluoro-3-(4-fluorophenyl)-7-[(3(S)-phenyl-1-pyrrolidinyl)carbonyl]-2-quinoxalinepentanoic acid]
O=C(O)CCCCc1nc2cc(C(=O)N3CC[C@@H](c4ccccc4)C3)c(F)cc2nc1-c1ccccc1 [24i, 6-fluoro-3-phenyl-7-[(3(S)-phenyl-1-pyrrolidinyl)carbonyl]-2-quinoxalinepentanoic acid]

Ki, 0.1 to 2 nM:
CC(CCc1nc2cc(C(=O)N3CCC(c4ccccc4)CC3)ccc2nc1-c1ccc(C(F)(F)F)cc1)CC(=O)O (centres unmarked) [17R]
CC(CCc1nc2cc(C(=O)NC3Cc4ccccc4C3)ccc2nc1-c1ccc(C(F)(F)F)cc1)CC(=O)O (stereo not drawn) [17T, 7-[[(2,3-dihydro-1H-inden-2-yl)amino]carbonyl]-beta-methyl-3-[4-(trifluoromethyl)phenyl]-2-quinoxalinepentanoic acid]
CC(CCc1nc2cc(C(=O)N3CC[C@@H](c4ccccc4)C3)ccc2nc1-c1ccc(C(F)(F)F)cc1)CC(=O)O (stereo partly drawn) [17V, beta-methyl-7-[(3(S)-phenyl-1-pyrrolidinyl)carbonyl]-3-[4-(trifluoromethyl)phenyl]-2-quinoxalinepentanoic acid]
CC(CCc1nc2cc(C(=O)N3CC(c4ccccc4)C3)ccc2nc1-c1ccc(C(F)(F)F)cc1)CC(=O)O (stereo not drawn) [17W, beta-methyl-7-[(3-phenyl-1-azetidinyl)carbonyl]-3-[4-(trifluoromethyl)phenyl]-2-quinoxalinepentanoic acid]
COc1ccc([C@@H](C)NC(=O)c2ccc3nc(-c4ccc(Cl)cc4)c(CCC(C)CC(=O)O)nc3c2)cc1 (stereo partly drawn) [17o, 3-(4-chlorophenyl)-7-[[[1(R)-(4-methoxyphenyl)ethyl]amino]carbonyl]-beta-methyl-2-quinoxaline pentanoic acid]
CC(CCCc1nc2cc(C(=O)N3CC[C@@H](c4ccccc4)C3)ccc2nc1-c1ccc(C(F)(F)F)cc1)C(=O)O (stereo partly drawn) [18E, alpha-methyl-7-[(3(S)-phenyl-1-pyrrolidinyl)carbonyl]-3-[4-(trifluoromethyl)phenyl]-2-quinoxalinepentanoic acid]
CC(CCCc1nc2cc(C(=O)NC3Cc4ccccc4C3)ccc2nc1-c1ccc(C(F)(F)F)cc1)C(=O)O (stereo not drawn) [18G, 7-[[(2,3-dihydro-1H-inden-2-yl)amino]carbonyl]-alpha-methyl-3-[4-(trifluoromethyl)phenyl]-2-quinoxalinepentanoic acid]
O=C(O)CCCCc1nc2cc(C(=O)N3CCC(c4ccccc4)CC3)ccc2nc1-c1ccc(C(F)(F)F)cc1Cl [26AA, 3-[2-chloro-4-(trifluoromethyl)phenyl]-7-[(4-phenyl-1-piperidinyl)carbonyl]-2-quinoxalinepentanoic acid]
O=C(O)CCCCc1nc2cc(C(=O)N3CCC(c4ccccc4)CC3)ccc2nc1-c1ccc(Br)cc1 [26AB, 3-(4-bromophenyl)-7-[(4-phenyl-1-piperidinyl)carbonyl]-2-quinoxalinepentanoic acid]

Ki, 20.1 to 200 nM:
O=C(O)Cc1cccc(CCc2nc3cc(C(=O)N[C@@H](c4ccccc4)C(F)(F)F)ccc3nc2-c2ccc(Cl)cc2)c1 [19J, 3-[2-[3-(4-chlorophenyl)-7-[[(2,2,2-trifluoro-1(S)-phenylethyl)amino]carbonyl]-2-quinoxalinyl]ethyl]benzeneacetic acid]
O=C(NCc1cccc(Cl)c1)c1ccc2nc(-c3ccccc3)c(CCCCc3nnn[nH]3)nc2c1 [22D, N-[(3-chlorophenyl)methyl]-2-phenyl-3-[4-(1H-tetrazol-5-yl)butyl]-6-quinoxalinecarboxamide]

Reference: patent publication US9469615B2, “Quinoxalines and AZA-quinoxalines as CRTH2 receptor modulators” (Merck Sharp & Dohme Corp., priority 2010, dated 2016)
